The source of these data is PubChem BioAssay AID652041 (Broad Institute, 2013).

Structures are written as SMILES.

The test system of the assay is P. falciparum HB3 in RBCs, SYBR Green DNA fluorescence. Put plainly: growth inhibition of P. falciparum HB3, dose response, HB3 strain, red blood cells, SYBR Green, cherry-picked (AID 652041).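 Note: parasites exposed to compound for 72 hours before the DNA read.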
On to `COc1cccc(/C=N/Nc2ncnc3scc(-c4ccccc4)c23)c1O`, for which the AC35 is 1.7 µM.

In the case of `CC(=O)Nc1cccc(NC(=O)CSc2ccc(-c3ccccn3)nn2)c1`, the AC35 was 17 µM.

`COc1cnc(-c2ccccn2)nc1Sc1ccccc1`: the AC35 is 9.03 µM.

Consider `O=C(CSc1ccc(-c2ccccn2)nn1)NCc1ccc(F)cc1`, for which the AC35 is 37.5 µM.

As to `CCC(=O)NC(c1ccco1)c1cc(Cl)c2cccnc2c1O` (centres undefined), the AC35 was 0.185 µM.

`CCn1c(CNc2ccc(Cl)cc2)nnc1SCc1ccc(Cl)cc1`: the AC35 was 38.6 µM.

Consider `CCCC1CCC(c2ccc(/C(N)=N/O)cc2)CC1` (centres undefined), for which the AC35 was 24 µM.

Turning to `Cc1ccc(Cl)cc1NC1=C/C(=N\S(=O)(=O)c2cccs2)c2ccccc2C1=O`, the AC35 is 0.119 µM.

On to `COc1cc(NS(=O)(=O)c2ccc(C)cc2)c2ncccc2c1`, for which the AC35 is 6.38 µM.

For `Cn1ccc(=Nc2ccc(NC(=O)c3ccc(N=c4ccn(C)c5ccc([N+](=O)[O-])cc45)cc3)cc2)cc1`, the AC35 was less than 0.0235 µM.

As for `c1ccc(-c2ccc(SCc3cccnc3)nn2)nc1`, the AC35 was 35.5 µM.

As for `O=Cc1cc(N=Nc2ccccc2Cl)ccc1O`, the AC35 is 2.27 µM.

Take `Cc1ccc(Nc2cc(C)nn2-c2nc(C)cc(C)n2)cc1`: the AC35 is 2.75 µM.

As to `CC(C)(C)C(=O)C(Oc1ccc(Cl)cc1)n1cncn1` (centres undefined), the AC35 was 36.1 µM.

`O=C(c1ccc(Cl)cc1)N1CCN(c2ccc(F)cc2)CC1`: the AC35 was 35.2 µM.

Consider `C=C1C(=O)C23CCC4C(C)(C(=O)OC)CCCC4(C)C2CCC1(O)C3` (centres undefined), for which the AC35 was 1.72 µM.

On to `CCOC(=O)c1cc2c(=Cc3ccc(N(C)C)cc3)c3ccccc3n2[n+]1C`, for which the AC35 is 2.44 µM.

As for `O=c1c2ccccc2c(-c2ccc(O)cc2)nn1-c1cccc(C(F)(F)F)c1`, the AC35 was 3.52 µM.

For the compound `Cc1ccc(NC2(c3nnnn3-c3c(C)cccc3C)CCCCC2)cc1`, the AC35 is 18 µM.

`CC(C)N1CCN(c2ccc(OCC3COC(Cn4cncn4)(c4ccc(Cl)cc4Cl)O3)cc2)CC1` (centres undefined): the AC35 is 4.53 µM.

Regarding `Cc1ccc(NC(=O)CN(C)C(=O)c2cccnc2Nc2cccc(C(F)(F)F)c2)cc1`, the AC35 was 10.5 µM.

On to `Oc1c(C(Nc2cccc(C(F)(F)F)c2)c2ccncc2)ccc2cccnc12` (centres undefined), for which the AC35 is 1.39 µM.

Consider `CCOC(=O)c1ccc(NC(=S)N(Cc2cccnc2)Cc2ccco2)cc1`, for which the AC35 was 28.1 µM.

Consider `Nc1cc2nc3ccccc3oc-2cc1=O`, for which the AC35 is 1.01 µM.

For `CCc1cc(SC#N)cc(C)c1NC(=O)CCl`, the AC35 was 7.66 µM.

On to `CCCCCCCn1c(=O)c(C(=O)OC)c(N)c2ccccc21`, for which the AC35 was 4.22 µM.

Take `COc1cccc(/C=N/NC(=O)c2nc(-c3ccccc3)cc(-c3ccccc3)n2)c1O`: the AC35 is 7.16 µM.

As to `C[n+]1c2cc(N)ccc2cc2ccc(N)cc21`, the AC35 is 0.0524 µM.

In the case of `O=C(O)c1ccccc1NC(c1ccccc1)c1ccc2cccnc2c1O` (centres undefined), the AC35 is 6.46 µM.

On to `Cc1csc(NC(=O)C(C)Oc2ccc(Cl)cc2C)n1` (centres undefined), for which the AC35 was 23 µM.

`COc1cnc(-c2ccccn2)nc1Sc1ccc(C)cc1`: the AC35 is 3.64 µM.

For the compound `Clc1ccc(C(Cn2ccnc2)OCc2c(Cl)cccc2Cl)c(Cl)c1` (centres undefined), the AC35 was 2.36 µM.

Regarding `COc1ccc(Sc2nc(-c3ccccn3)ncc2OC)cc1`, the AC35 was 3.53 µM.

`COc1ccc(N(C)S(=O)(=O)c2ccc(Cl)c(C(=O)NNC(=O)c3ccccc3O)c2)cc1`: the AC35 was 35.8 µM.

As for `COc1cnc(-c2ccccn2)nc1N(C)c1ccccc1`, the AC35 is 3.46 µM.

Consider `Cc1oc2c(c1C(=O)c1ccccc1)C(=O)C(=O)c1ccccc1-2`, for which the AC35 was 3.48 µM.

Regarding `CCCCC(CC)c1nnc(NC(=O)c2cccs2)s1` (centres undefined), the AC35 was 37.3 µM.

On to `O=C(Nc1nnc(-c2ccccc2)o1)c1ccc(Cl)cc1`, for which the AC35 is 10.7 µM.

Consider `CCCCCCSc1ccc(-c2nc3ccccn3c2NCCCC)cc1`, for which the AC35 is 6.94 µM.

Regarding `CCC(C)c1ccc(NC(=S)NCCn2cc(Br)cn2)cc1` (centres undefined), the AC35 is 10.5 µM.

For `COc1ccc(C(=O)On2c(-c3ccc(Br)cc3)nc3ccccc3c2=O)cc1`, the AC35 was 9.45 µM.

As for `Oc1ccccc1-c1cc(-c2ccc3c(c2)OCCO3)n[nH]1`, the AC35 is 9.9 µM.

Consider `O=C(N/N=C/c1cc(Cl)cc([N+](=O)[O-])c1O)c1ccccc1NS(=O)(=O)c1cccs1`, for which the AC35 is 41.5 µM.

Consider `O=C(NCC1CC1(Cl)Cl)Nc1ccc(Cl)c(Cl)c1` (centres undefined), for which the AC35 was 5.48 µM.

With `Cc1c(Cc2ccccc2)c(NCCN(C)C)n2c(nc3ccccc32)c1C#N`, the AC35 was 6.66 µM.

As for `CCc1ccc(S(=O)(=O)N(C(=O)c2ccncc2)c2ccc(OC(=O)c3ccncc3)cc2)cc1`, the AC35 was 41.7 µM.

With `COC(=O)C1=NN(C(=O)c2cccc(Br)c2)C(O)(c2ccc(Cl)cc2)C1` (centres undefined), the AC35 is 31 µM.

For the compound `Cc1ccc(Sc2cc(C)nc(-c3ccccn3)n2)cc1`, the AC35 is 6.03 µM.

As for `CN(C)c1ccc(C=c2c3cc(O)ccc3n3c2cc(-c2ccccc2)[n+]3C)cc1`, the AC35 is 0.247 µM.

For `O=c1cc(CSc2ccc(Cl)cc2)nc(-c2ccccn2)[nH]1`, the AC35 was 2.3 µM.

With `Oc1c(CN2CCCC2)cc(COCc2ccccc2)c2cccnc12`, the AC35 is 7.31 µM.

Turning to `Cc1cc(/C=C2\SC(=S)N(C)C2=O)c(C)n1-c1ccc(O)cc1`, the AC35 was 9.39 µM.

As for `CCCn1c(=O)c(C(=O)NCc2ccc(OC)c(OC)c2)c(O)c2ccccc21`, the AC35 was 21.8 µM.

With `CC(/C=N/n1c(COc2ccccc2)n[nH]c1=S)=C\c1ccccc1`, the AC35 was 42.2 µM.

As for `Cc1ccc(O)c(C2=NNC(c3ccc(Cl)cc3)C2)c1` (centres undefined), the AC35 is 3.59 µM.

Take `CCC(C)Sc1cccc(-c2nc3ccccn3c2NCc2ccccc2)c1` (centres undefined): the AC35 is 12.1 µM.

As for `COc1ccc2[nH]c(=O)c(CN(Cc3cccnc3)C(=O)Nc3ccccc3)cc2c1`, the AC35 is 15.7 µM.

Consider `O=C(Nc1cc(Oc2ccc(Cl)cc2)cc([N+](=O)[O-])c1)c1ccco1`, for which the AC35 was 2.14 µM.

Take `S=C(NCc1ccco1)Nc1ccc(Oc2ccc(Cl)cc2)cc1`: the AC35 is 16.8 µM.

On to `CNc1cc(CSC)nc(SCc2ccc(Cl)cc2Cl)n1`, for which the AC35 was 22.3 µM.

Turning to `Cc1ccc2oc(-c3ccccc3)c(C(=O)O)c(=O)c2c1`, the AC35 is 20.3 µM.

As to `COc1ccccc1C1CCN(C(=O)c2ccc(Cl)cc2)CC1`, the AC35 is 28.6 µM.

With `O/N=C/c1ccccc1OCc1ccc(Cl)cc1`, the AC35 was 34.4 µM.

`CCCCNc1c(-c2cccc(Sc3ccc(OC)cc3)c2)nc2ccccn12`: the AC35 is 8.77 µM.

As for `CC(=O)Oc1ccc(OC(C)=O)c(SCCCCCCl)c1`, the AC35 is 2.56 µM.

`O=C1Nc2c(Br)cccc2C1=O`: the AC35 is 30.5 µM.

Take `CCCCCCCc1ccc(-c2ccc(O)cc2)nc1`: the AC35 was 4.88 µM.

Take `Cc1ccccc1Oc1nc(-c2ccccn2)nc2ccccc12`: the AC35 was 4.4 µM.

With `Cc1nc2ccc(C(C(F)(F)F)(C(F)(F)F)C(F)(F)F)cc2[nH]1`, the AC35 was 11.2 µM.

Regarding `O=C1OCC(CO)(CO)N=C1NNc1ccc(Cl)c(Cl)c1`, the AC35 is 19.7 µM.

For `NC(=O)N=Nc1c2[nH]c3ccccc3nc-2c2ccccc12`, the AC35 is 21.1 µM.

Regarding `CC(C)=CCc1c(O)ccc(C(=O)Cc2ccccc2)c1O`, the AC35 is 11 µM.

In the case of `O=C(CSc1ccc(-c2ccccn2)nn1)c1ccccc1`, the AC35 is 28 µM.

Turning to `Cc1c(C(=O)O)cccc1-c1ccc(/C=N/Nc2ccc(Br)cc2)o1`, the AC35 was 21.3 µM.

As to `CCN(CC)c1ccc(/C=N/NC(=O)c2c(Cl)cnn2C)c(O)c1`, the AC35 is 2.66 µM.

For the compound `COc1ccc(-c2oc3ccccc3c2C#Cc2cncn2C)cc1`, the AC35 is 0.87 µM.

Take `O=C(CCCSc1ccccc1)Nc1nc(-c2ccccn2)cs1`: the AC35 is 8.91 µM.

As to `Cc1cccc(NC(=S)NC(C)CCc2ccccc2)c1` (centres undefined), the AC35 is 12.7 µM.

On to `COc1cc(/C=N/O)cc(Br)c1OCc1cccc(Cl)c1`, for which the AC35 is 28.1 µM.

On to `CC12CC3(C)CC(C)(C1)CC(NC(=O)N1CCCC1)(C2)C3`, for which the AC35 is 14.9 µM.

For the compound `Cc1cccc(Oc2nc(-c3ccccn3)nc3ccccc23)c1`, the AC35 is 6.06 µM.

For the compound `CCCCc1ccc(-n2c(Cc3cccs3)n[nH]c2=S)cc1`, the AC35 is 29.2 µM.

Regarding `Clc1nc(-c2ccccn2)nc2scc(-c3ccccc3)c12`, the AC35 is 2.39 µM.

As for `CCn1c2ccc(C)cc2c2nc3cc(C(=O)O)ccc3nc21`, the AC35 is 37.1 µM.

Regarding `CC1=CC(=O)C=C(C)C1=NOS(=O)(=O)c1ccccc1`, the AC35 is 5.53 µM.

On to `COC(=O)c1cccc2c1-c1ccccc1/C2=N/O`, for which the AC35 was 16.5 µM.

As for `COc1cccc(CC(=O)Nc2ccc3nc(C)sc3c2)c1`, the AC35 is 43.9 µM.

On to `O=[N+]([O-])c1ccc(Sc2cccc[n+]2[O-])c2nonc12`, for which the AC35 was 1.41 µM.

For the compound `Cc1[nH]n(-c2ccccc2)c(=O)c1/C=N/Nc1nncc(-c2ccccc2)n1`, the AC35 was 1.97 µM.

For the compound `CCCS(=O)(=O)c1c(S(=O)(=O)CCC)c2c(C)cccn2c1C(=O)N/N=C/c1cc(O)cc(O)c1`, the AC35 was 10.5 µM.

`Cc1cccc2sc(NNC(=O)c3ccc(S(=O)(=O)N4CCCC(C)C4)cc3)nc12` (centres undefined): the AC35 was 4.44 µM.

Regarding `O/N=C/c1cc(Br)ccc1OCc1ccccc1F`, the AC35 is 29.2 µM.

Turning to `COc1ccc(O)c(C(=O)CC(=O)c2ccccc2C)c1`, the AC35 is 13.9 µM.

As for `Oc1ccc(Br)cc1/C=N/Nc1ccccn1`, the AC35 is 1.61 µM.

As for `O=C(Nc1nnc(SCc2ccc(F)cc2)s1)c1ccccn1`, the AC35 was 1.93 µM.

For `COc1cccc(/C=N/Nc2ncnc(Cl)c2N)c1O`, the AC35 is 0.942 µM.

In the case of `CCCCNC(=S)N/N=C1\CCCCc2ccccc21`, the AC35 is 16.8 µM.

Take `FC(F)(F)c1cccc(N2CCc3cn[nH]c32)c1`: the AC35 is 28.4 µM.

Take `C=CCn1c(-c2cc(-c3ccc(C)cc3)nc3ccccc23)n[nH]c1=S`: the AC35 was 14.1 µM.

As for `[O-][n+]1cccc2c(Br)cc(Br)c(O)c21`, the AC35 is 2.77 µM.

On to `C[C@@]12CCC3[C@@](CCC4[C@@]3(C)CCC[C@@]4(C)C(=O)NCc3ccccc3)(CC1=O)C2` (some centres undefined), for which the AC35 was 21.7 µM.

Take `Cc1cccc(N2CCN(C(=O)C3COc4ccccc4O3)CC2)c1C` (centres undefined): the AC35 is 38.9 µM.

`CCN(CC)C(=O)CSc1ncnc2sc(-c3ccccc3)cc12`: the AC35 is 36.6 µM.

Turning to `CCCCCCn1c(=O)c(C(=O)Nc2ncccc2C)c(O)c2ccccc21`, the AC35 was 4.29 µM.
